One may read the melting point as the temperature of the solid-liquid transition.

Molecules are shown by their SMILES. “Also recorded” adds a separate entry of the source.

Results on 11 molecules are retold here after patent US7115666B2, “Nitrone compounds, pharmaceutical compositions containing the same and methods for treating inflammation and neuropathic pain” (Renovis, Inc., priority 2002, dated 2006).

Series [1] deals with chronic constriction injury (CCI) rat model of peripheral neuropathy. The series can be described thus: Cold allodynia assay in chronic constriction injury (CCI) rats. Type of series: in vivo. The protocol: The purpose of the following studies was to determine whether test compounds had analgesic activity in a chronic constriction injury (CCI) rat model of peripheral neuropathy. Neuropathic rats were treated with PBN, and other test compounds or 2.5% DMSO in 1.0% MC as a vehicle and tested in a cold allodynia assay to evaluate nociceptive responses.
One week prior to the cold allodynia assay, CCI rats were prepared as follows. Male Sprague Dawley rats (158–224 g) had their right sciatic nerve loosely ligated under aseptic conditions. To observe the cold allodynia response, their paw withdrawal latency response was determined by placing rats in a cold water bath (2–4° C., 2.5 cm deep). […] Rats rendered neuropathic in the right limb display an exaggerated withdrawal response on the neuropathic side (right rear limb). For the cold allodynia assay, two pre-dose latency times to cold were recorded. The end point was an exaggerated removal of the paw from the water. […] The remaining rats were divided into treatment groups. Two separate latency times were obtained for each rat before the dose of each drug. In the first study shown in FIG. 1, rats were then dosed with Compound 1 (30 mg/kg, po) or PBN (100 mg/kg, po) as a suspension in Veh, or Veh alone (1 ml/kg, po). In the second study shown as FIG. 2, three different doses of Compound 1 (10, 30, 100 mg/kg, po) were administered to CCI rats. In both studies, latency to withdraw the ligated leg up above water level was recorded using an electronic timer. The tester was blinded to the animal's treatment group at the time of testing.
Maximum time of latency in any trial was 20 sec. Statistical significance was assessed for paired groups (pre-dose vs. post-dose) using a Wilcoxon test and between non-paired groups using a Kruskal-Wallis with a Dunn's test post-hoc. A probability value of p<0.05 was identified as statistically significant.

Series [2] concerns adjuvant-induced footpad edema in rats. In words: Adjuvant assay (adjuvant-induced footpad edema). The class given is in vivo, rat. The protocol: This assay is a model for chronic inflammation. See, for example, B. M. Weichman, “Rat Adjuvant Arthritis: A Model of Chronic Inflammation,” Pharmacological Methods in the Control of Inflammation, 363–380 (1989) and references cited therein.
In this assay, Male Lewis rats weighing between 180–220 g were lightly anesthetized with an ip injection of 30 mg/kg of sodium pentobarbital (50 mg/ml). Desiccated Mycobacterium butyrium (Difco, 20 mg/ml) suspended in mineral oil was injected (50 μL) at both sides of the base of the tail under the skin. A line was tattooed on both rear paws at 5 mm above the angle of the ankle. The paw volumes, under the line, were measured by volume displacement using a plethysmometer (Ugo Basile) at the day of adjuvant injection (day 0) and on day 14. On day 14, animals with paw volumes equal to the mean of paw volumes ±SD were randomized into treatment groups. Rats which fell outside ±1 SD were not used in the experiment. One group received vehicle (1% methyl cellulose) by the po route and the other group received indomethacin (3 mg/kg suspended in 1% methyl cellulose). Dosing began on day 14, and continued until final assessment on day 21 post-adjuvant injection. […] This group has a slightly positive volume increase when paw volumes on day 21 are subtracted from day 0 values due to growth of the rat. […]

Series [3] deals with collagen footpad edema in rats. The series can be described thus: Collagen arthritis assay. The class given is in vivo, rat. The settings on record: for paw volume differences after treatment: FIG. 3; for activity in rat collagen model: dose not stated (Assay Results summary). The method, then:
This assay is commonly used to screen and evaluate anti-inflammatory drug candidates. See, for example, Larsson et al., Arthritis & Rheumatism, 33:693–701, 1990 and references cited therein.
For these experiments, Female DA rats (7–8 weeks of age) were immunized with Type II collagen derived from bovine nasal septum as described in Cremer et al., J. of Immunology, 149:1045–1053, 1992. The collagen was dissolved and administered with incomplete Freund's adjuvant. Standard precautions were taken to avoid denaturing the collagen before its administration such as keeping the solution cold during preparation. Rats were immunized in the base of the tail on day 0. Dosing began on day 10 with rat paws weighed and volumes taken on day 21. The arthritis was evaluated by comparing paw weights and/or paw volumes at day 21. Compounds reducing paw weight or paw volumes by at least about 30% compared to the controls were also considered effective in this assay.

In series [4] the test system is Taxol-induced neuropathic pain model in mice. In words: Taxol-induced neuropathic pain model, mechanical allodynia (von Frey filament). The class given is in vivo. An excerpt:
Taxol is a chemotherapeutic reagent for treatment of cancer patients. Cancer patients under Taxol chemotherapy can develop neuropathic pain, with a symptom of severe mechanical allodynia, so that a light touch (non-noxious stimulus in a normal condition) becomes painful. […] Recent studies have shown that Taxol is involved in TNF-alpha release in microglia cells. As one of the clinically relevant models, Taxol-induced neuropathic pain was developed in mice and rats. It is believed that small-diameter high threshold nociceptive C-fibers in the peripheral sensory nervous systems are largely, if not exclusively, affected in the Taxol-induced neuropathic pain models.
In this series of experiments, five-week old, male C57B1/6 mice were purchased from Charles River and housed at the Renovis animal facility in South San Francisco. Mice were trained for one week in an enclosure made of Plexiglas with dimensions of 2 in×2.5 in×3.5 in (W, H, and L) with a meshed metal support. The baseline of response to mechanical stimulus was measured using a von Frey Filament (0.6 g=3.84 mN). Normally, the baseline response is between 0 to 40%.
Taxol was dissolved (1 mg/ml) in 50% Cremophor EL and 50% alcohol, and freshly diluted with saline to the final concentration of 0.2 mg/ml in 10% Cremophor EL, 10% alcohol. Mice were administered Taxol at 1 mg/kg of body weight, via i.p. daily, while the animals of the control group received vehicle (10% Cremophor EL and 10% alcohol in saline).
Animals receiving this daily dose of Taxol will develop neuropathic pain. The mechanical allodynia was measured at day 7, 8, or 14 after Taxol administration.
A quantity of 200 mg of compound 14 (Example 14) was dissolved in 0.4 ml of 100% DMSO to yield a concentration of 500 mg/ml, and was kept at 4° C. until use. Methylcellulose was dissolved in deionized-distilled water to yield a concentration of 1%. The freshly prepared meythlcellulose was used to make a suspension of the compound, 10 mg of compound in 2.5% DMSO (V/V) and 1% methylcellulose. The suspension was sonicated for 6 min with a 5 second interval every 30 seconds before administration to animals.
A quantity of 50 mg/kg (body weight) compound or vehicle (2.5% DMSO and 1% methylcellulose), 100 μl/20 g (body weight) was given to animals via gavage feeding procedure in a randomized, blinded fashion. The animals were then placed in the enclosure for assay. Mechanical allodynia was measured with von Frey filament (0.6 g=[…]) at various times after administration.
Referring to FIG. 5, baseline in the group of animals was measured as 25+/−4% (n=24, ±SEM) before induction of neuropathic pain with Taxol (or sham treatment), where the response was measured with a von Frey filament (0.6 g=3.84 mN) as the percent of trials a withdrawal response is observed after probing with the filament. The higher the percentage, the greater the inferred pain.
Sixteen animals were treated with Taxol daily to induce neuropathic pain. Mechanical allodynia was assayed at day 8; average withdrawal response was measured as 81±5% (n=16, ±SEM). Sixteen animals were treated with matching vehicle to create sham animals. The Taxol and sham animals were then separated randomly into two groups of 8 animals each for drug vs. vehicle testing. Withdrawal responses to a von Frey filament probe were measured at 1, 6, 24, and 72 hours post-administration of drug or vehicle control, and averaged for each animal. […] Negative values reflect a reduction in inferred pain.
For mouse neuropathic pain studies, C57B1/6 strain, five-weeks old male mice were obtained from Charles River, San Diego, Calif. A total of 120 mice were used for the studies. 4 mice per cage were housed under standard conditions with 12-hour light and 12-hour dark cycles (in Renovis, Inc, South San Francisco facility). For rat neuropathic pain studies, male Sprague-Dawley rats, with body weights ranging from 180–200 grams, were obtained from Harlan. A total of 42 rats were used for this study. […]

Setting [5] is: dose not stated (Assay Results summary).
Setting [6] is: Taxol/mice, P.O., Single dosing, 50 Mg/Kg body weight.
The mark [7] stands for this setting: FIG. 2, 30 mg/kg, p.o., 90 min post-dose.
[8] abbreviates: FIG. 2, 100 mg/kg, p.o., 90 min post-dose.

On to `CC(C)(C)[N+]([O-])=Cc1ccccc1` [PBN, N-tert-butyl phenyl nitrone, reference compound], for which the “activity in cold allodynia assay” value in series [1] (FIG. 1, 100 mg/kg, p.o., 90 min post-dose) is “completely inactive”. In addition, the “activity in the analgesic assay” value in series [1] (setting [5]) is “completely inactive”. Besides, in series [2] (setting [5]), the “activity in the adjuvant assay” value was “completely inactive”. The “paw volume differences after treatment” value in series [3] (100 mg/kg) is “inactive”. Moreover, in series [3], the “activity in rat collagen model” value is “completely inactive”.
For `CCC(C=[N+]([O-])C(C)(C)C)c1ccc(C(C)(C)C)cc1` (stereo not drawn) [Compound 15, N-tert-butyl-C-[1-(4-tert-butylphenyl)propyl]nitrone], the “Effective time Hour post dosing” value in series [4] (setting [6]) is listed as “None via p.o”.
Turning to `CC(C)(C)[N+]([O-])=CCCc1ccccc1` [Compound 1, N-tert-butyl-C-(2-phenylethyl)nitrone], in series [1] (10 mg/kg, po), the “activity in a model of painful peripheral neuropathy” value is on record as “significantly active”. Further, the “post-dose latency score vs. vehicle” value is “signficant post-dose latency score over vehicle” in series [1] (FIG. 1, 30 mg/kg, p.o., 90 min post-dose, Kruskal-Wallis, Dunn's test); “significant post-dose latency score over vehicle” in series [1] (setting [7]); “significant post-dose latency score over vehicle” in series [1] (setting [8]). Also, the “latency to cold stimulus, post-dose vs. pre-dose score” value in series [1] (FIG. 1, 30 mg/kg, p.o., 90 min post-dose, Wilcoxon test) is “Significantly higher latency scores”. Besides, the “latency time, post-dose vs. pre-dose score” value in series [1] (FIG. 2, 10 mg/kg, p.o., 90 min post-dose) is recorded as “significantly increased latency time”; in series [1] (setting [7]), “significantly increased latency time”; in series [1] (setting [8]), “significantly increased latency time”. Moreover, the “time postdosing of analgesic effect” value in series [4] (50 mg/kg single dose via oral gavage) came to 1 h. Besides, the “effect on mechanical allodynia (Taxol-induced pain)” value in series [4] (50 mg/kg single dose via oral gavage, von Frey filament 0.6 g, measured 1, 6, 24, up to 48 or 72 hours postdosing) is listed as “analgesic effect”. Moreover, the “Effective time Hour post dosing” value in series [4] (setting [6]) is approximately 1 h. For the same molecule, the “extent of block of mechanical allodynia” value in series [4] (setting [6]) is “partial”. Moreover, the “paw volume differences after treatment” value in series [3] (dose not stated) was “unexpected activity”. Further, the “total gait scores as an index of pain” value in series [3] (FIG. 4, lowering indicates relief from pain) is “significant activity; also recorded: activity as an analgesic”. In addition, the “activity in rat collagen model” value in series [3] was “significantly active”.
`CC(C)(C)[N+]([O-])=CCCc1ccc(NS(=O)(=O)c2ccccc2)cc1` [Compound 10, N-tert-butyl-C-[2-(4-benzenesulfonamidophenyl)ethyl]nitrone] yielded a melting point of 160 °C.
Regarding `COc1ccc(CC(C)C=[N+]([O-])C(C)(C)C)cc1` (stereo not drawn) [Compound 16, N-tert-butyl-C-[1–2-(4-methoxyphenyl)methylethyl]nitrone], the “Effective time Hour post dosing” value in series [4] (setting [6]) is given as “None via p.o”.
On to `CC(C)(C)c1cc(CCC=[N+]([O-])C(C)(C)C)cc(C(C)(C)C)c1O` [Compound 21], for which the “Effective time Hour post dosing” value in series [4] (setting [6]) was “None via p.o”.
The molecule `[O-][N+](=CCCc1ccccc1)C1CCCCC1` [Compound 18, N-Cyclohexyl-C-(2-phenylethyl)nitrone] came in with a melting point of 97.2 °C.
As to `CCOc1ccc(CCC=[N+]([O-])C(C)(C)C)cc1` [Compound 7, N-tert-butyl-C-[2-(4-ethoxyphenyl)ethyl]nitrone], the melting point lay within 54 to 57 °C. For the same molecule, the “Effective time Hour post dosing” value in series [4] (setting [6]) is reported as “None via p.o”.
For `COc1ccc2c(c1)c(CC(=O)O)c(C)n2C(=O)c1ccc(Cl)cc1` [Indomethacin], the “paw volume as compared to vehicle controls” value in series [2] (3 mg/kg, po, dosing day 14 to day 21 post-adjuvant) is reported as “significantly reduced paw volume”.
In the case of `CC(C)Oc1ccc(CCC=[N+]([O-])C(C)(C)C)cc1` [Compound 6, N-tert-butyl-C-[2-(4-isopropoxyphenyl)ethyl]nitrone], in series [4] (setting [6]), the “Effective time Hour post dosing” value is “None via p.o”.
Same read-out and setting: the same measure for `COc1ccc(CCC=[N+]([O-])C(C)(C)C)cc1` [Compound 4, N-tert-butyl-C-[2-(4-methoxyphenyl)ethyl]nitrone]: “None via p.o”.
